Data as given in US11345708B2, “Substituted imidazo[1,2-a]imidazoles as modulators of metabotropic glutamate receptor 4 activity” (Hoffmann-La Roche Inc., priority 2017, dated 2022).

target: T1, human mGlu4 receptor (Homo sapiens, UniProt Q14833); assay: Ca2+ mobilization in vitro assay on recombinant human mGlu4 expressed in HEK293 cells; type: cell-based; settings: HEK-293 cells stably expressing human mGlu4; L-AP4 added at EC20; Fluo-4 fluorescence; read-out: EC50 (uM) mGlu4 PAM
T1 construct: expressed in transfected cells; host or cells: HEK-293 (monoclonal, stably transfected)
Method: Determination of EC50 Values Using a Ca2+ Mobilization In Vitro Assay on Recombinant Human mGlu4 Expressed in HEK293 Cells:
A monoclonal HEK-293 cell line stably transfected with a cDNA encoding for the human mGlu4 receptor was generated; for the work with mGlu4 Positive Allosteric Modulators (PAMs), a cell line with low receptor expression levels and low constitutive receptor activity was selected to allow the differentiation of agonistic versus PAM activity. Cells were cultured according to standard protocols (Freshney, 2000) in Dulbecco's Modified Eagle Medium with high glucose supplemented with 1 mM glutamine, 10% (vol/vol) heat-inactivated bovine calf serum, Penicillin/Streptomycin, 50 μg/ml hygromycin and 15 μg/ml blasticidin (all cell culture reagents and antibiotics from Invitrogen, Basel, Switzerland).
About 24 hrs before an experiment, 5×10^4 cells/well were seeded in poly-D-lysine coated, black/clear-bottomed 96-well plates. The cells were loaded with 2.5 μM Fluo-4 AM in loading buffer (1×HBSS, 20 mM HEPES) for 1 hr at 37° C. and washed five times with loading buffer. The cells were transferred into a Functional Drug Screening System 7000 (Hamamatsu, Paris, France), and 11 half logarithmic serial dilutions of test compound at 37° C. were added and the cells were incubated for 10-30 min. with on-line recording of fluorescence. Following this pre-incubation step, the agonist (2S)-2-amino-4-phosphonobutanoic acid (L-AP4) was added to the cells at a concentration corresponding to EC20 with on-line recording of fluorescence; in order to account for day-to-day variations in the responsiveness of cells, the EC20 of L-AP4 was determined immediately ahead of each experiment by recording of a full dose-response curve of L-AP4.
Responses were measured as peak increase in fluorescence minus basal (i.e. fluorescence without addition of L-AP4), normalized to the maximal stimulatory effect obtained with saturating concentrations of L-AP4. Graphs were plotted with the % maximal stimulatory using XLfit, a curve fitting program that iteratively plots the data using Levenburg Marquardt algorithm. The single site competition analysis equation used was y=A+((B−A)/(1+((x/C)D))), where y is the % maximal stimulatory effect, A is the minimum y, B is the maximum y, C is the EC50, x is the log 10 of the concentration of the competing compound and D is the slope of the curve (the Hill Coefficient). From these curves the EC50 (drug concentration at which 50% of the maximal receptor activation was achieved), the Hill coefficient as well as the maximal response in % of the maximal stimulatory effect obtained with saturating concentrations of L-AP4 were calculated (see Fig. 1).
A depression of the signal observed after addition of the EC20 concentration of L-AP4 was indicative of an inhibitory activity of the test compound.

T1 sequence (Q14833 33-912): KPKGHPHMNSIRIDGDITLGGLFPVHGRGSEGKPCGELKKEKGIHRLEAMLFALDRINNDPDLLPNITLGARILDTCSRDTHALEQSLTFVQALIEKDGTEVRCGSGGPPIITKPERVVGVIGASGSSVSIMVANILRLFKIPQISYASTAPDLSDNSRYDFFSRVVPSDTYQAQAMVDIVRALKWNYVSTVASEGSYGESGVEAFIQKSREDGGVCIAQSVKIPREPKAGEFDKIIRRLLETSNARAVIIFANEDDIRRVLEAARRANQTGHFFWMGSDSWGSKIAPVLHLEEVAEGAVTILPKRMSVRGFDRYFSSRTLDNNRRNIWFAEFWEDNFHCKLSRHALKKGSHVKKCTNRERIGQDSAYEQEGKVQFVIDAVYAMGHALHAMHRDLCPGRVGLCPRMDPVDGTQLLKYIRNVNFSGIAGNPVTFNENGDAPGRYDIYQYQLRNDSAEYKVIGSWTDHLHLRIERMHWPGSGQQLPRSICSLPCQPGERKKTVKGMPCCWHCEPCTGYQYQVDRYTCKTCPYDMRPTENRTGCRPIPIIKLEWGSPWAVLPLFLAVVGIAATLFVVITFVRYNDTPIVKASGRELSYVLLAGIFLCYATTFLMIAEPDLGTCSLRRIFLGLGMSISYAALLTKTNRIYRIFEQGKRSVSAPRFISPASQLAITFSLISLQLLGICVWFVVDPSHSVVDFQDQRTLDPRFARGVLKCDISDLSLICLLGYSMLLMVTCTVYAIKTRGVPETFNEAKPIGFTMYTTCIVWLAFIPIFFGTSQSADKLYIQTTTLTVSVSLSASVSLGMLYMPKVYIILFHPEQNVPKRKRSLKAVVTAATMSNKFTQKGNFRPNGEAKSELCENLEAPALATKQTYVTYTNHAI

EC50 [µM] | Structure (SMILES)
0.178 | O=C1N(c2c(F)cc(C#Cc3ccccc3)cc2F)c2ncc(-c3cccnc3)n2C12CC2 [Example 33, 3-[2,6-Difluoro-4-(2-phenylethynyl)phenyl]-6-(pyridin-3-yl)-2,3-dihydrospiro[[1,3]diazolo[1,2-a]imidazole-1,1′-cyclopropane]-2-one]
0.195 | Cn1cc(-c2cnc3n2C(C)(C)C(=O)N3c2c(F)cc(C#Cc3ccccc3)cc2Cl)cn1 [Example 34, 1-(2-chloro-6-fluoro-4-(phenylethynyl)phenyl)-3,3-dimethyl-5-(1-methyl-1H-pyrazol-4-yl)-1H-imidazo[1,2-a]imidazol-2(3H)-one]
0.227 | Cn1cc(-c2cnc3n2C2(CC2)C(=O)N3c2c(F)cc(-c3ccc(C(C)(F)F)cc3)cc2F)cn1 [Example 35, 1′-(4′-(1,1-difluoroethyl)-3,5-difluoro-[1,1′-biphenyl]-4-yl)-5′-(1-methyl-1H-pyrazol-4-yl)spiro[cyclopropane-1,3′-imidazo[1,2-a]imidazol]-2′(1′H)-one]
0.252 | Cn1ccc(-c2cnc3n2C(C)(C)C(=O)N3c2c(F)cc(C#Cc3ccccc3)cc2Cl)n1 [Example 36, 1-(2-chloro-6-fluoro-4-(phenylethynyl)phenyl)-3,3-dimethyl-5-(1-methyl-1H-pyrazol-3-yl)-1H-imidazo[1,2-a]imidazol-2(3H)-one]
0.229 | Cn1cc(-c2cnc3n2C2(CC2)C(=O)N3c2c(F)cc(C#Cc3cccnc3)cc2F)cn1 [Example 37, 1′-(2,6-difluoro-4-(pyridin-3-ylethynyl)phenyl)-5′-(1-methyl-1H-pyrazol-4-yl)spiro[cyclopropane-1,3′-imidazo[1,2-a]imidazol]-2′(1′H)-one]
0.331 | O=C1N(c2c(F)cc(C#Cc3ccccc3)cc2F)c2ncc(-c3cncnc3)n2C12CC2 [Example 38, 3-[2,6-Difluoro-4-(2-phenylethynyl)phenyl]-6-(pyrimidin-5-yl)-2,3-dihydrospiro[[1,3]diazolo[1,2-a]imidazole-1,1′-cyclopropane]-2-one]

The remaining lines, values behind:

Structure (SMILES) | EC50 [µM]
Cn1ccc(-c2cnc3n2C2(CC2)C(=O)N3c2c(F)cc(C#Cc3ccccc3)cc2F)n1 [Example 26, 1′-(2,6-difluoro-4-(phenylethynyl)phenyl)-5′-(1-methyl-1H-pyrazol-3-yl)spiro[cyclopropane-1,3′-imidazo[1,2-a]imidazol]-2′(1′H)-one] | 0.104
O=C1N(c2c(F)cc(C#Cc3ccccc3)cc2F)c2ncc(-c3cc[nH]n3)n2C12CC2 [Example 27, 3-[2,6-Difluoro-4-(2-phenylethynyl)phenyl]-6-(1H-pyrazol-3-yl)-2,3-dihydrospiro[[1,3]diazolo[1,2-a]-imidazole-1,1′-cyclopropane]-2-one] | 0.121
O=C1N(c2c(F)cc(C#Cc3cccnc3)cc2F)c2ncc(-c3cc[nH]n3)n2C12CC2 [Example 28, 7′-[2,6-difluoro-4-[2-(3-pyridyl)ethynyl]phenyl]-3′-(1H-pyrazol-3-yl)spiro[cyclopropane-1,5′-imidazo[1,2-a]imidazole]-6′-one] | 0.135
Cn1cc(-c2cnc3n2C2(CC2)C(=O)N3c2c(F)cc(C#Cc3ccccc3)cc2F)cn1 [Example 29, 3-[2,6-Difluoro-4-(2-phenylethynyl)phenyl]-6-(1-methyl-1H-pyrazol-4-yl)-2,3-dihydrospiro[[1,3]diazolo[1,2-a]imidazole-1,1′-cyclopropane]-2-one] | 0.139
CC1(C)C(=O)N(c2c(F)cc(C#Cc3ccccc3)cc2F)c2ncc(-c3ccccc3)n21 [Example 31, 1-(2,6-difluoro-4-(phenylethynyl)phenyl)-3,3-dimethyl-5-phenyl-1H-imidazo[1,2-a]imidazol-2(3H)-one] | 0.243
O=C1N(c2c(F)cc(C#Cc3ccccc3)cc2F)c2ncc(-c3ccncc3)n2C12CC2 [Example 32, 3-[2,6-Difluoro-4-(2-phenylethynyl)phenyl]-6-(pyridin-4-yl)-2,3-dihydrospiro[[1,3]diazolo[1,2-a]imidazole-1,1′-cyclopropane]-2-one] | 0.156
